“And” between values parts separate entries of the source, which are not always exact repeats. Equal entries are not always repeated.
What was measured:
S. furcifera adults = test: Y-tube olfactometer behavioral trials; format: in vivo, Sogatella furcifera; conditions: odorant 50 µL/L vs hexane; adults
Outline: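 Single S. furcifera adults (2 days post-emergence, starved 0.5 h) chose between odorant (100 µL of 50 µL/L on filter paper) and hexane control in a glass Y-tube, charcoal-filtered humidified air 300 mL/min per arm, 25 ± 1 °C, 50% RH. Choice scored if insect passed half an arm and stayed >1 min within 10 min; 45 insects per compound, chi-squared test.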

SfurOBP1 = SfurOBP1 (Sogatella furcifera, UniProt V5T8N5); test: biochemical; format: binding; conditions: for Fluorescence competitive binding assay, fluorescence intensity: OBP1, three replicate columns
Outline: (§1)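 Protein 2.0 µM + 1-NPN 2.0 µM, 50 mM Tris-HCl pH 7.4; competitor odorants 2, 4 … 20 µM final; read 2 min post-addition, ex 337/em 390–490 nm; n=3. K1-NPN from 1-NPN titration/Scatchard; Ki from IC50 corrected for free 1-NPN.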

SfurOBP3 = SfurOBP3 (Sogatella furcifera, UniProt V5T818); test: biochemical; format: binding; conditions: for Fluorescence competitive binding assay, fluorescence intensity: OBP3, three replicate columns
Outline: as §1

SfurOBP11 = SfurOBP11 (Sogatella furcifera, UniProt V5T6E3); test: biochemical; format: binding
Outline: as §1

SfurOBP2 = SfurOBP2 (Sogatella furcifera, UniProt V5T759); test: biochemical; format: binding
Outline: as §1

Chain of SfurOBP11 (V5T6E3 entry or part of it): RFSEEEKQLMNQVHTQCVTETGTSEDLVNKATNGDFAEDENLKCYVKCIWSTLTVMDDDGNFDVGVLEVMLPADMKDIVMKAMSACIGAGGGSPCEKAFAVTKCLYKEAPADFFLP
Chain of SfurOBP1 (V5T8N5 entry or part of it): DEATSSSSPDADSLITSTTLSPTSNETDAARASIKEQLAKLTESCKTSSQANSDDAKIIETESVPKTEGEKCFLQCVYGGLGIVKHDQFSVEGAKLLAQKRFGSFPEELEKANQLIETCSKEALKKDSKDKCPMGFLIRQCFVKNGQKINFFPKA
Chain of SfurOBP2 (V5T759 entry or part of it): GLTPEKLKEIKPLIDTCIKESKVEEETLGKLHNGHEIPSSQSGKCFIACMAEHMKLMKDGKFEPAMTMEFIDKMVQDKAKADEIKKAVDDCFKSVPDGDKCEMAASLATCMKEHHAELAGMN
Chain of SfurOBP3 (V5T818 entry or part of it): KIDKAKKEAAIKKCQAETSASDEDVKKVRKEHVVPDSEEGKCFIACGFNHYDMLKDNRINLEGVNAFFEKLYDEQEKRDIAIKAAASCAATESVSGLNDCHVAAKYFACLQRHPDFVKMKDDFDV

CCC/C=C/CO [(E)-2-hexenol]
number of insects choosing hexane arm (S. furcifera adults): 9
number of insects choosing volatilies arm (S. furcifera adults): 8
number of insects failed (no choice) (S. furcifera adults): 24
IC50 (SfurOBP1): > 20 µM
Fluorescence competitive binding assay, fluorescence intensity (SfurOBP1; ligand concentration 2 (μM)): 5821 and 6205 and 6589
Fluorescence competitive binding assay, fluorescence intensity (SfurOBP1; ligand concentration 4 (μM)): 7444 and 7124 and 7270
Fluorescence competitive binding assay, fluorescence intensity (SfurOBP1; ligand concentration 6 (μM)): 8585 and 7896 and 9273
Fluorescence competitive binding assay, fluorescence intensity (SfurOBP1; ligand concentration 8 (μM)): 8091 and 7978 and 7865
Fluorescence competitive binding assay, fluorescence intensity (SfurOBP1; ligand concentration 10 (μM)): 8122 and 7477 and 6720
Fluorescence competitive binding assay, fluorescence intensity (SfurOBP1; ligand concentration 12 (μM)): 5971 and 6877 and 6423
Fluorescence competitive binding assay, fluorescence intensity (SfurOBP1; ligand concentration 14 (μM)): 6112 and 6019 and 6107
Fluorescence competitive binding assay, fluorescence intensity (SfurOBP1; ligand concentration 16 (μM)): 6252 and 5805 and 6056
Fluorescence competitive binding assay, fluorescence intensity (SfurOBP1; ligand concentration 18 (μM)): 8503 and 8229 and 10760
Fluorescence competitive binding assay, fluorescence intensity (SfurOBP1; ligand concentration 20 (μM)): 7495 and 8100 and 7787
IC50 (SfurOBP3): > 20 µM
Fluorescence competitive binding assay, fluorescence intensity (SfurOBP3; ligand concentration 2): 55419 and 52631 and 56435
Fluorescence competitive binding assay, fluorescence intensity (SfurOBP3; ligand concentration 4): 52848 and 53720 and 53070
Fluorescence competitive binding assay, fluorescence intensity (SfurOBP3; ligand concentration 6): 56485 and 54348 and 51437
Fluorescence competitive binding assay, fluorescence intensity (SfurOBP3; ligand concentration 8): 53820 and 44741 and 53024
Fluorescence competitive binding assay, fluorescence intensity (SfurOBP3; ligand concentration 10): 50999 and 49511 and 49866
Fluorescence competitive binding assay, fluorescence intensity (SfurOBP3; ligand concentration 12): 51314 and 45497 and 46649
Fluorescence competitive binding assay, fluorescence intensity (SfurOBP3; ligand concentration 14): 46992 and 46379 and 46282
Fluorescence competitive binding assay, fluorescence intensity (SfurOBP3; ligand concentration 16): 39521 and 39562 and 39433
Fluorescence competitive binding assay, fluorescence intensity (SfurOBP3; ligand concentration 18): 45227 and 50180 and 45511
Fluorescence competitive binding assay, fluorescence intensity (SfurOBP3; ligand concentration 20): 47692 and 45313 and 40014
IC50 (SfurOBP11): > 20 µM
Fluorescence intensity, fluorescence competitive binding assay, OBP11 (SfurOBP11; ligand concentration 2, replicate 1): 34795
Fluorescence intensity, fluorescence competitive binding assay, OBP11 (SfurOBP11; ligand concentration 2, replicate 2): 32362
Fluorescence intensity, fluorescence competitive binding assay, OBP11 (SfurOBP11; ligand concentration 2, replicate 3): 33570
Fluorescence intensity, fluorescence competitive binding assay, OBP11 (SfurOBP11; ligand concentration 4, replicate 1): 31605
Fluorescence intensity, fluorescence competitive binding assay, OBP11 (SfurOBP11; ligand concentration 4, replicate 2): 31826
Fluorescence intensity, fluorescence competitive binding assay, OBP11 (SfurOBP11; ligand concentration 4, replicate 3): 31807
Fluorescence intensity, fluorescence competitive binding assay, OBP11 (SfurOBP11; ligand concentration 6, replicate 1): 29600
Fluorescence intensity, fluorescence competitive binding assay, OBP11 (SfurOBP11; ligand concentration 6, replicate 2): 28910
Fluorescence intensity, fluorescence competitive binding assay, OBP11 (SfurOBP11; ligand concentration 6, replicate 3): 29255
Fluorescence intensity, fluorescence competitive binding assay, OBP11 (SfurOBP11; ligand concentration 8, replicate 1): 27040
Fluorescence intensity, fluorescence competitive binding assay, OBP11 (SfurOBP11; ligand concentration 8, replicate 2): 29546
Fluorescence intensity, fluorescence competitive binding assay, OBP11 (SfurOBP11; ligand concentration 8, replicate 3): 25961
Fluorescence intensity, fluorescence competitive binding assay, OBP11 (SfurOBP11; ligand concentration 10, replicate 1): 25687
Fluorescence intensity, fluorescence competitive binding assay, OBP11 (SfurOBP11; ligand concentration 10, replicate 2): 25600
Fluorescence intensity, fluorescence competitive binding assay, OBP11 (SfurOBP11; ligand concentration 10, replicate 3): 25774
Fluorescence intensity, fluorescence competitive binding assay, OBP11 (SfurOBP11; ligand concentration 12, replicate 1): 25617
Fluorescence intensity, fluorescence competitive binding assay, OBP11 (SfurOBP11; ligand concentration 12, replicate 2): 23726
Fluorescence intensity, fluorescence competitive binding assay, OBP11 (SfurOBP11; ligand concentration 12, replicate 3): 24242
Fluorescence intensity, fluorescence competitive binding assay, OBP11 (SfurOBP11; ligand concentration 14, replicate 1): 22896
Fluorescence intensity, fluorescence competitive binding assay, OBP11 (SfurOBP11; ligand concentration 14, replicate 2): 21710
Fluorescence intensity, fluorescence competitive binding assay, OBP11 (SfurOBP11; ligand concentration 14, replicate 3): 22816
Fluorescence intensity, fluorescence competitive binding assay, OBP11 (SfurOBP11; ligand concentration 16, replicate 1): 19721
Fluorescence intensity, fluorescence competitive binding assay, OBP11 (SfurOBP11; ligand concentration 16, replicate 2): 20050
Fluorescence intensity, fluorescence competitive binding assay, OBP11 (SfurOBP11; ligand concentration 16, replicate 3): 20211
Fluorescence intensity, fluorescence competitive binding assay, OBP11 (SfurOBP11; ligand concentration 18, replicate 1): 19470
Fluorescence intensity, fluorescence competitive binding assay, OBP11 (SfurOBP11; ligand concentration 18, replicate 2): 19537
Fluorescence intensity, fluorescence competitive binding assay, OBP11 (SfurOBP11; ligand concentration 18, replicate 3): 20671
Fluorescence intensity, fluorescence competitive binding assay, OBP11 (SfurOBP11; ligand concentration 20, replicate 1): 20038
Fluorescence intensity, fluorescence competitive binding assay, OBP11 (SfurOBP11; ligand concentration 20, replicate 2): 19843
Fluorescence intensity, fluorescence competitive binding assay, OBP11 (SfurOBP11; ligand concentration 20, replicate 3): 19956
IC50 (SfurOBP2): > 20 µM
Fluorescence competitive binding assay, OBP2 (raw fluorescence reading) (SfurOBP2; ligand concentration 2 (unit not given), replicate column 1 of 3): 18290
Fluorescence competitive binding assay, OBP2 (raw fluorescence reading) (SfurOBP2; ligand concentration 2 (unit not given), replicate column 2 of 3): 18447
Fluorescence competitive binding assay, OBP2 (raw fluorescence reading) (SfurOBP2; ligand concentration 2 (unit not given), replicate column 3 of 3): 18531
Fluorescence competitive binding assay, OBP2 (raw fluorescence reading) (SfurOBP2; ligand concentration 4 (unit not given), replicate column 1 of 3): 17418
Fluorescence competitive binding assay, OBP2 (raw fluorescence reading) (SfurOBP2; ligand concentration 4 (unit not given), replicate column 2 of 3): 17308
Fluorescence competitive binding assay, OBP2 (raw fluorescence reading) (SfurOBP2; ligand concentration 4 (unit not given), replicate column 3 of 3): 17228
Fluorescence competitive binding assay, OBP2 (raw fluorescence reading) (SfurOBP2; ligand concentration 6 (unit not given), replicate column 1 of 3): 16794
Fluorescence competitive binding assay, OBP2 (raw fluorescence reading) (SfurOBP2; ligand concentration 6 (unit not given), replicate column 2 of 3): 16314
Fluorescence competitive binding assay, OBP2 (raw fluorescence reading) (SfurOBP2; ligand concentration 6 (unit not given), replicate column 3 of 3): 16504
Fluorescence competitive binding assay, OBP2 (raw fluorescence reading) (SfurOBP2; ligand concentration 8 (unit not given), replicate column 1 of 3): 15464
Fluorescence competitive binding assay, OBP2 (raw fluorescence reading) (SfurOBP2; ligand concentration 8 (unit not given), replicate column 2 of 3): 15780
Fluorescence competitive binding assay, OBP2 (raw fluorescence reading) (SfurOBP2; ligand concentration 8 (unit not given), replicate column 3 of 3): 16125
Fluorescence competitive binding assay, OBP2 (raw fluorescence reading) (SfurOBP2; ligand concentration 10 (unit not given), replicate column 1 of 3): 15191
Fluorescence competitive binding assay, OBP2 (raw fluorescence reading) (SfurOBP2; ligand concentration 10 (unit not given), replicate column 2 of 3): 14875
Fluorescence competitive binding assay, OBP2 (raw fluorescence reading) (SfurOBP2; ligand concentration 10 (unit not given), replicate column 3 of 3): 15159
Fluorescence competitive binding assay, OBP2 (raw fluorescence reading) (SfurOBP2; ligand concentration 12 (unit not given), replicate column 1 of 3): 14300
Fluorescence competitive binding assay, OBP2 (raw fluorescence reading) (SfurOBP2; ligand concentration 12 (unit not given), replicate column 2 of 3): 14543
Fluorescence competitive binding assay, OBP2 (raw fluorescence reading) (SfurOBP2; ligand concentration 12 (unit not given), replicate column 3 of 3): 14192
Fluorescence competitive binding assay, OBP2 (raw fluorescence reading) (SfurOBP2; ligand concentration 14 (unit not given), replicate column 1 of 3): 13523
Fluorescence competitive binding assay, OBP2 (raw fluorescence reading) (SfurOBP2; ligand concentration 14 (unit not given), replicate column 2 of 3): 13764
Fluorescence competitive binding assay, OBP2 (raw fluorescence reading) (SfurOBP2; ligand concentration 14 (unit not given), replicate column 3 of 3): 13447
Fluorescence competitive binding assay, OBP2 (raw fluorescence reading) (SfurOBP2; ligand concentration 16 (unit not given), replicate column 1 of 3): 12677
Fluorescence competitive binding assay, OBP2 (raw fluorescence reading) (SfurOBP2; ligand concentration 16 (unit not given), replicate column 2 of 3): 12355
Fluorescence competitive binding assay, OBP2 (raw fluorescence reading) (SfurOBP2; ligand concentration 16 (unit not given), replicate column 3 of 3): 12095
Fluorescence competitive binding assay, OBP2 (raw fluorescence reading) (SfurOBP2; ligand concentration 18 (unit not given), replicate column 1 of 3): 11796
Fluorescence competitive binding assay, OBP2 (raw fluorescence reading) (SfurOBP2; ligand concentration 18 (unit not given), replicate column 2 of 3): 11817
Fluorescence competitive binding assay, OBP2 (raw fluorescence reading) (SfurOBP2; ligand concentration 18 (unit not given), replicate column 3 of 3): 11503
Fluorescence competitive binding assay, OBP2 (raw fluorescence reading) (SfurOBP2; ligand concentration 20 (unit not given), replicate column 1 of 3): 11621
Fluorescence competitive binding assay, OBP2 (raw fluorescence reading) (SfurOBP2; ligand concentration 20 (unit not given), replicate column 2 of 3): 11220
Fluorescence competitive binding assay, OBP2 (raw fluorescence reading) (SfurOBP2; ligand concentration 20 (unit not given), replicate column 3 of 3): 11057

Reference: paper PMC6409085, “Three odorant-binding proteins are involved in the behavioral response of Sogatella furcifera to rice plant volatiles” (PeerJ, 2019)
